Experimental data taken from PMC9128668 (Nature, 2021).

Target: T1, BT1622^3S-Gal/GalNAc (Bacteroides thetaiotaomicron, UniProt Q8A7A3)
T1 sequence (Q8A7A3 21-500): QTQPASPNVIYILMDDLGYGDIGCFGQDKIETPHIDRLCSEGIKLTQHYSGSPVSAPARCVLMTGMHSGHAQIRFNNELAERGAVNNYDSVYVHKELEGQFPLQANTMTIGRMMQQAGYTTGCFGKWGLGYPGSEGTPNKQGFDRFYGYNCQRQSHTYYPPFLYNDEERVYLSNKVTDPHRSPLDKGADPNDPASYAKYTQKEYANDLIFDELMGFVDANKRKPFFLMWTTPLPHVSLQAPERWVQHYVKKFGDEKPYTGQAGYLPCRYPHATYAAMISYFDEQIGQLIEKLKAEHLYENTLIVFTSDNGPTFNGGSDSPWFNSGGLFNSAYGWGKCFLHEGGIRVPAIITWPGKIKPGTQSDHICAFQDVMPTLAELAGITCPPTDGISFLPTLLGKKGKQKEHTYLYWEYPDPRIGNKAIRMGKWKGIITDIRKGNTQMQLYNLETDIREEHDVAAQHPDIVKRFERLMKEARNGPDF
Experiment: X-ray crystallography
Type: binding
Conditions: active site; Ca2+; inactive Ser form; 100 mM ligand

`CC(=O)N[C@H]1C(O)O[C@H](CO)[C@H](O)[C@@H]1O` (stereo partly shown) [GalNAc] was tested, and the X-ray crystallography was “BT1622^3S-Gal/GalNAc in complex with GalNAc”.
